Measurements taken from patent US20220023302A1, “PDE9 INHIBITORS FOR TREATING SICKLE CELL DISEASE” (Imara Inc., priority 2019, published 2022).
Values after ≈ are worked out from the molar mass of the structure shown. “Also recorded” adds a separate entry of the source.

Experiments:
[1] = tested on: SCD patient derived cell lines; assay: Study in SCD patient derived cell lines; assay type: cell-based, human
Townes SCD model = assay: 28 day Townes SCD model, Compound 1 vs. HU (RBC/WBC); assay type: in vivo, mouse
Experimental: In one study, Compound 1 and therapeutic doses of HU (25 mg/kg and 50 mg/kg) were tested side-by-side in the 28 day Townes SCD model (oral daily). […] MPO is a monocyte inflammatory marker. Plasma nitrate is improved nitrate levels. Lower levels of plasma nitrate may contribute to hemolysis in SCD patients.

C57B1/6J = assay: In-vivo cognition: C57B1/6J
[2] = tested on: Erythroid cell lines (K562, UT-7); assay: In vitro studies in erythroid cell lines vs. HU; assay type: cell-based
Text: The effects of Compound 1 is compared with HU in in vitro studies in erythroid cell lines (K562 and UT-7).

[3] = Clinical safety and tolerability; assay type: in vivo, human
Experimental: In some embodiments, Compound 1, or a pharmaceutically acceptable salt, solvate, or hydrate thereof is administered to a patient, wherein Compound 1, or a pharmaceutically acceptable salt, solvate, or hydrate thereof, is administered once a day with food. […] The incidence and severity of the side effects, such as nausea, emesis and headache, can be reduced when Compound 1, or a pharmaceutically acceptable salt, solvate, or hydrate thereof, is taken with food.
Therefore, Population A is designed to explore the PD dose response in patients as well as the tolerability of the 200 mg dose level in sickle cell patients who have tolerated the 100 mg dose well.

Solubility in water = assay type: physicochemical
Experimental: Per taste testing results, bitterness could be detected for all these samples. […] At this level of solubility, masking the taste of Compound 1 in an oral solution is challenging. Even high level of sucralose was evaluated and taste of the oral solution remained bitter. […] Furthermore, strawberry flavor was chosen, because patients like its sweet taste and it has a good solubility in water. Orange juice or lime juice may be used to dilute the oral solution and to mask the bitter taste before administration.

[4] = Nonclinical data on concomitant administration of HU with Compound 1; assay type: in vivo
Experimental: Results from Population B are intended to provide information on Compound 1 when administered concomitantly with HU, both of which increase HbF levels through alternative biochemical pathways that increase intracellular cGMP. Because there are no clinical data to support administration of Compound 1 concomitantly with HU, patients in Population B initiate Compound 1 dosing at the low dose (30 mg or 50 mg) used in Population A and only escalate to the 100 mg dose if the 50 mg dose has been safe and tolerated for 4 weeks.

[5] = tested on: CD11a, CD11b and CD18 integrins on SCD patient neutrophils; assay: Integrin expression on SCD patient neutrophils; assay type: cell-based, human
Text: (§1) This appears to be accompanied by a Compound 1-mediated reduction in disease specific cell activation including 67% lower levels of myeloid derived myeloperoxidase (MPO) and 26% lower levels of neutrophil derived arginase in the lung (FIG. 1). […] This was quantified by real time monitoring of the green florescent patches in the microchannel, as neutrophils are labeled by a specific Alexa Fluor® 488-conjugated antibody before the perfusion step. […] Under these conditions, adhesion was reduced an average of 54% (p=0.03) (FIG. 2). Mechanistically, not willing to be bound by any theory, Compound 1 may target the stationary adhesion step of neutrophils as it lowered expression levels of key neutrophil integrins including CD11a [reduced 23% (p=0.002)], CD11b [reduced 39% (ns)) and CD18 [reduced 47% (p=0.03)) (FIG. 3).

Townes mouse model = assay: Plasma sE-Sel in the Townes mouse model; assay type: in vivo; conditions: Townes mice treated with Compound 1
Experimental: Endothelial E-selectin (E-Sel) slows leukocyte rolling, which is followed by stationary adhesion and transmigration of activated leukocytes. Plasma levels of sE-Sel, produced by the enzymatic cleavage of the extracellular domains of E-Sel, are increased in SCD patients and this may be mediated by its interaction with leukocytes. In the Townes mouse model, plasma sE-Sel is increased 144% ([…]) over levels seen in control mice ([…]).

[6] = tested on: In-vivo SCD: vaso occlusion; assay: In-vivo SCD: vaso occlusion (WBC)
[7] = Stability of Compound 1 in solution as a function of pH; assay type: physicochemical
Text: The pH of the solution affects the compound stability and solubility. […] In some embodiments, pharmaceutical composition has a pH from about 3.0 to about 7.0. In some embodiments, the pharmaceutical composition has a pH from about 3.0 to about 6.0, or from about 5.5 to about 6.5. In some embodiments, pH of the pharmaceutical composition is about 5.5, about 5.6, about 5.7, about 5.8, about 5.9, about 6.0, about 6.1, about 6.2, about 6.3, about 6.4, or about 6.5. In some embodiments, pH of the pharmaceutical composition is about 5.5. In some embodiments, pH of the pharmaceutical composition is about 6.0.
There is no obvious excipient that can mask its taste. Another major challenge was to optimize the excipients quantity. […] In some embodiments, a pharmaceutical composition of pH above 5.5 comprising Compound 1 is provided. […] Extensive formulation development and manufacturing process studies were carried out. Other challenges are the excipient compatibility and stability of the API in solution.

Townes mice = assay: Myeloid and neutrophil inflammatory markers in the lungs of Townes mice; assay type: in vivo, mouse
Text: as §1

SCD models = assay: Circulating levels of PMNs in SCD models; assay type: in vivo, murine
Text: as §1, with “Recently several drugs targeting white cell binding to endothelial cells, have been advancing in clinical studies in patients. Compound 1 is able to increase expression of fetal hemoglobin in patient derived cells and murine models of SCD and reduce vessel occlusion in SCD murine models. In this Example, the ability of Compound 1 to reduce the adhesive properties of neutrophils from SCD patients and reduce sE-Selectin (sE-Sel) and markers of PMN activation in murine SCD models was studied. […] This appears” for “This appears”

SCD patient neutrophils = assay: In vitro adhesion assay mimicking blood flow (microchannels lined with activated HMEC-1); assay type: cell-based, human
Text: as §1

CNS activity (C57B1/6J): No CNS activity
solubility (Solubility in water): ~1000 mg/mL (≈ 2530 mM)
increase of Compound 1 exposure by concomitant HU [4]: do not suggest
stability at a lower pH [7]: unstable
Compound: C[C@@H]1CN(Cc2ncccn2)C[C@H]1c1cn2c(C3CCOCC3)ncc2c(=O)[nH]1 [Compound 1, 6-[(3S,4S)-4-methyl-1-(pyrimidin-2-ylmethyl)pyrrolidin-3-yl]-3-tetrahydropyran-4-yl-7H-imidazo[1,5-a]pyrazin-8-one]
F-cells % [1]: F-cells % increase
HbF [1]: increases in HbF
key measures of RBC pathology (sickled RBCs; unconjugated bilirubin; % HbF cells; LDH activity) vs. HU (Townes SCD model; 28 day, oral daily, Compound 1 30 mg/kg, HU 25 and 50 mg/kg, FIG. 4): outperforms HU in a statistically significant manner
measures of WBC pathology vs. HU (Townes SCD model; 28 day, oral daily, Compound 1 30 mg/kg, HU 25 and 50 mg/kg, FIG. 5): outperforms HU in a statistically significant manner
RBC/WBC parameters vs. HU (Townes SCD model; Townes): Statistically better results than HU
cGMP levels vs. HU [2]: increased cGMP levels compared with HU; also recorded: Increased cGMP levels vs. HU;
induction of HbF (RNA, protein, etc.) [2]: induction of HbF (RNA, protein, etc.)
effect of food on adverse event profile (nausea, emesis, headache) ([3]; once a day with food): dramatically reduce the adverse event profile
safety and tolerability ([3]; once daily doses of 30, 50, 100, and 200 mg, nonclinical and healthy volunteer clinical data): safe and well tolerated
expression of CD11a, CD11b and CD18 integrins ([5]; FIG. 3 legend): reduces expression
CD11b expression reduced ([5]; ns, FIG. 3): 39%
CD11a expression reduced ([5]; p=0.002, FIG. 3): 23%
CD18 expression reduced ([5]; p=0.03, FIG. 3): 47%
plasma sE-Sel levels (Townes mouse model; control mice 57, Townes mice 139): 92 ng/mL
plasma sE-Sel elevation over control mice (Townes mouse model; untreated Townes 144%): 61%
vaso occlusion (WBC) vs. HU [6]: Better results vs. HU; combo
myeloid and neutrophil inflammatory markers in the lungs (Townes mice; Townes mice, FIG. 1 legend): reduces
lower levels of myeloid derived myeloperoxidase (MPO) in the lung (Townes mice; lung, FIG. 1): 67%
lower levels of neutrophil derived arginase in the lung (Townes mice; lung, FIG. 1): 26%
circulating levels of PMNs (SCD models): reduced
reduction of neutrophil adhesion to activated HMEC-1 (SCD patient neutrophils; 30 min incubation with 30 μM, average, p=0.03, FIG. 2): 54%
adhesion of SCD patient neutrophils to endothelial cells (SCD patient neutrophils; added to whole blood samples prior to perfusion): reduced adhesions significantly and in a dose dependent manner; also recorded: reduces adhesion
